The values that follow come from US5789448A, “Benzoylethylene derivative” (Mitsubishi Chemical Corporation, priority 1994, dated 1998).

Assay [1] relates to KB cells of human rhinopharyngeal cancer. The assay is described as follows: Cancer cell growth inhibiting activity (KB cells, MTT). The assay is classed as cell-based. Conditions: read-out: Cancer cell growth inhibiting activity (IC50). Here is the method: (§1) In order to evaluate the tyrosine kinase inhibiting activity and the cancer cell growth inhibiting activity of the compound of the present invention, tests were carried out in a partially purified human EGF ([…]) receptor tyrosine kinase activity measuring system and a cell culture system using human cancerous cells.
(Cancer cell growth inhibiting activity)
KB cells of human rhinopharyngeal cancer retain EGF receptor on cellular surfaces thereof excessively.
By using these KB cells, investigation of the effect of a sample on growth of cultured cancer cells was carried out by the following method.
2.5×10^3 cells/well of KB cells were sowed on a 96 well dish and cultured in a DMEM:F12 (1:1) medium containing 10% FCS, 50 U/ml penicillin and 50 μg/ml of streptomycin, under conditions of 37° C. and 5% carbonic acid gas for 1 day. Thereafter, a sample dissolved in DMSO was added to the medium (DMSO final concentration: <0.1%) and cultured under the above conditions for 3 days. The sample and the medium were replaced every 24 hours.
The count of the number of living cells was determined by calorimetric quantitation at two wavelengths of 540 nm and 660 nm using a MTT reagent by referring to the measurement method described in Michael C.
At the same time, the count of the number of living cells when the sample was not added was also measured, and the value was defined as b.
The cell growth inhibiting rate was determined by the following formula.
Inhibiting rate (%)=(b-a)/b×100

For assay [2], the target named is T1, human EGF (epithelial cell growth factor) receptor tyrosine kinase (Homo sapiens, UniProt P00533).
T1 construct: to obtain an A431 cell membrane fraction, and this fraction was provided for measurement as a partially purified EGF receptor; endogenous in cells; host or cells: A431 (human squamous cell carcinoma), membrane fraction
The experiment in a line: Tyrosine kinase inhibiting activity (EGF receptor partially purified from A431 cell membrane fraction, RR-SRC peptide substrate, gamma-32P-ATP). The class given is biochemical. Conditions: 10 μM ATP, 1% DMSO, in ice for 30 minutes. Here is the method:
as §1
(Tyrosine kinase inhibiting activity)
The tyrosine kinase inhibiting activity was measured by using an EGF receptor which was partially purified from an A431 cell line derived from human squamous cell carcinoma and by improving the tyrosine kinase activity measurement method described in Linda J. Pike et al., Proceedings of the National Academy of Sciences of the U.S.A. 79, 1443 (1982).
The detailed method is as described below.
A431 cells were cultured in a Dulbecco modified Eagle's medium (DMEM) containing 10% fetal calf serum (FCS), at 37° C. under 5% carbonic acid gas. The cells were homogenized in a solution containing 10 mM N-2-hydroxyethylpiperazino-N'-2-ethanesulfonic acid (Hepes) buffer (pH 7.4), 0.25M saccharose and 0.1 mM EDTA and then centrifuged at 3000 g for 5 minutes. Further, a supernatant thereof was centrifuged at 10000× g for 30 minutes to obtain an A431 cell membrane fraction, and this fraction was provided for measurement as a partially purified EGF receptor which was an enzyme source.
To a reaction mixture of the above-mentioned A431 cell membrane fraction (10 to 15 μg), a 30 mM Hepes buffer (pH 7.7), 2 mM MnCl2, 50 μM Na3 VO4 and a sample dissolved in dimethylsulfoxide (DMSO) (final concentration: 1% DMSO) was added 100 ng of EGF, and then 75 μg of a synthetic substrate RR-SRC peptide (a peptide described in Sequence No. 1) and 10 μM gamma-^32 P-adenosine triphosphoric acid (37 to 42 KBq) were added thereto to start a reaction.
The volume at that time was 60 μl.
The reaction was carried out in ice for 30 minutes, and the reaction was terminated by adding 6 μl of 10 mg/ml bovine serum albumin and 25 μl of 20% trichloroacetic acid. The reaction mixture was left to stand in ice for 30 minutes.
Next, after the mixture was centrifuged at 5000× g for 2 minutes, 40 μl of the supernatant was sampled and adsorbed to P81 phosphocellulose paper.
This was dipped in a 30% acetic acid solution for 15 minutes to fix, washed by dipping in a 15% acetic acid solution for 15 minutes (washing was repeated four times) and measured the count of ^32 P attached to P81 phosphocellulose paper by a liquid scintillation counter, and this value was defined as A.
At the same time, the counts of a reaction in which the sample tested was not added and a reaction in which both the sample and EGF were not added were measured and were defined as B and C, respectively.
The tyrosine kinase inhibiting rate is determined by the following formula.
Inhibiting rate (%)=100-{(B-A)/(B-C)}×100
From the inhibiting rate obtained by changing the addition concentration of the sample, an IC50 value (50% inhibiting concentration) was calculated.

Where [3] appears, read: KB cells, 3 days, sample and medium replaced every 24 hours, MTT.

SMILES strings stand for the structures. Where two headings read alike, the source gives them in different places.

T1 sequence (P00533 25-1210): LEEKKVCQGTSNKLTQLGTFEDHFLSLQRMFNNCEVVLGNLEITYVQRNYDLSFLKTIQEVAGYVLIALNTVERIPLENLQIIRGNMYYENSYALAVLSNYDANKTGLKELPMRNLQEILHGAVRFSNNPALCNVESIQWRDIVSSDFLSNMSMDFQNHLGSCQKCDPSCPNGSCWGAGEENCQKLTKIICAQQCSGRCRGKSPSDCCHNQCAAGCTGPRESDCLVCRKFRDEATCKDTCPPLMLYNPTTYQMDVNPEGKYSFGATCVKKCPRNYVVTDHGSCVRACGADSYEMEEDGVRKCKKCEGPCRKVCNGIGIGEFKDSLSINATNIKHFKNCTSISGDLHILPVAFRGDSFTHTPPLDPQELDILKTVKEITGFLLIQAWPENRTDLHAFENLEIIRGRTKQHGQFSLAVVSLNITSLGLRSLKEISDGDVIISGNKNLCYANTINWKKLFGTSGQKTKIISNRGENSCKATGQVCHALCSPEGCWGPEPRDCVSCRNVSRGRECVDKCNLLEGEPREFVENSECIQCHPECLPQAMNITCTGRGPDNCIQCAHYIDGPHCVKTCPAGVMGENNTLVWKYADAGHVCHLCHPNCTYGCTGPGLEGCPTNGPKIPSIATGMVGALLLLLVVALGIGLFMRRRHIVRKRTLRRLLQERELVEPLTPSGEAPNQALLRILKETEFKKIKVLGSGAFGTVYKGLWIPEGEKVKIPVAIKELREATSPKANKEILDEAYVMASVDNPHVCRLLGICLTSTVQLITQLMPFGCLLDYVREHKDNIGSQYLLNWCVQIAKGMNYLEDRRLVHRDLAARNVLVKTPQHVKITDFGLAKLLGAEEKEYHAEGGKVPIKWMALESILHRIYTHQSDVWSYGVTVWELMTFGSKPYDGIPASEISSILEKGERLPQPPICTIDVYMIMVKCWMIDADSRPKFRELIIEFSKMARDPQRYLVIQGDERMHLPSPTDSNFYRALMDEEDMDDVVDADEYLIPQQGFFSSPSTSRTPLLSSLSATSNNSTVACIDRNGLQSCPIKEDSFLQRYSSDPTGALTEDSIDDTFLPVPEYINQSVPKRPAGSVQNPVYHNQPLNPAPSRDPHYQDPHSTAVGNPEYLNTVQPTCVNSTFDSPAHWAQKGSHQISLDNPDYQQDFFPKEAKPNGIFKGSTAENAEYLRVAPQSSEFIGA

As a reminder, the IC50 is the concentration at which inhibition is half-maximal. For the compound `COc1ccc(C(=O)C=CC#N)cc1OC` [compound 5], the IC50 in assay [1] (KB) was 620 nM; in assay [2] it was 340 nM.
The like results for `COC(=O)C=CC(=O)c1ccc(OC)c(OC)c1` [compound 26] were, in that order, 1900 nM and 860 nM.
Regarding `COC(=O)C=CC(=O)c1ccc(OC)cc1` [compound 29], the IC50 in assay [1] (KB) was determined as 3900 nM; in assay [2], 9400 nM.
Regarding `COc1ccc(C(=O)C=CCN2CCCCC2)cc1OC` [compound 97], the values for the 50% inhibitory concentration (IC50) in assay [1] (KB) and in assay [2] were 2600 nM and 8200 nM, respectively.
The like results for `CC(C(=O)Nc1ccccc1)=C(C)C(=O)c1ccccc1` [compound 253] were, in that order, 420 nM and 38000 nM.
For `CCN(CC)C(C)(C)C(=CC(=O)c1ccc(OC)c(OC)c1)S(=O)(=O)c1ccccc1` [compound 278], the IC50 in assay [1] (KB) worked out at 950 nM; in assay [2] it was 1700 nM.
The like results for `COc1cc(C(=O)C=C(C(C)(C)N2CCCCC2)S(=O)(=O)c2ccccc2)cc2c1OCO2` [compound 290] were, in that order, 830 nM and 5000 nM.
The like results for `CCN(CC)C(C)(C)C(=CC(=O)c1ccc(OC)c(OC)c1)S(=O)(=O)c1ccc(C)cc1` [compound 293] were, in that order, 230 nM and 1100 nM.
For the compound `COc1ccc(C(=O)C=C(C(C)(C)N2CCC(C)CC2)S(=O)(=O)c2ccccc2)cc1OC` [compound 327], the IC50 in assay [1] (setting [3]) turned out to be 5000 nM; in assay [2] it was 27300 nM.
Regarding `COc1ccc(C(=O)C=C(CN(C(C)C)C(C)C)S(=O)(=O)c2ccccc2)cc1OC` [compound 335], the IC50 stood at 3100 nM in assay [1] (KB) and 27900 nM in assay [2].
Consider `CCN(CC)C(C)(C)C(C#N)=CC(=O)c1ccc(OC)c(OC)c1` [compound 349], for which the IC50 in assay [1] (setting [3]) was 2000 nM; in assay [2] it was 5800 nM.
For the compound `CCN(CC)C(C)(C)C(=CC(=O)c1ccc(OC)c(OC)c1)S(=O)(=O)c1ccc([N+](=O)[O-])cc1` [compound 350], the IC50 in assay [1] (KB) is 570 nM; in assay [2] it was 1400 nM.
Regarding `CCN(CC)C(C)(C)C(=CC(=O)c1ccc(OC)c(OC)c1)S(=O)(=O)c1cccs1` [compound 352], the IC50 in assay [1] (KB) is 630 nM; in assay [2], 470 nM.
